Molecular target: T1, human vasopressin V2 receptor subtype (Homo sapiens, UniProt P30518)
T1 construct: host or cells: CHO cells, stably transfected (pZeoSV vector)
Assay: Vasopressin binding in CHO cell membranes expressing human vasopressin V2 subtype receptors ([3H]arginine vasopressin radioligand binding)
Settings: 100 nM
Experimental: Vasopressin Binding in Chinese Hamster Ovary Cell Membranes Expressing Human Vasopressin V2 Subtype Receptors
Chinese Hamster Ovary (CHO) cells stably transfected with the human V2 subtype receptors were obtained from M. Thibonnier, Case Western Reserve University School of Medicine, Cleveland, Ohio.
The trypsin is removed by aspiration and the cells dislodged by tapping. Cell Culture medium (e.g. 30 mL for 1:30 split) is immediately added and mixed well to inactivate trypsin. 1 mL of detached cells is added to new culture flasks containing fresh Cell Culture medium (e.g. into 25 mL per T-150 flask), and mixed gently. The cells are incubated at 37° C. in 5% CO2. The medium is changed at 3 to 4 day interval (or as appropriate). […] All steps are done under sterile conditions.
The cells are washed twice gently with Hank's Balanced Salt solution (e.g. use 10 mL per T-150 flask). […] The contents are transferred to centrifuge tubes (50 mL) kept in ice bath. All subsequent steps are done at 4° C. The tubes are centrifuged at 300×g for 15 min (1380 rpm on SORVAL, Model RT6000D, using the rotor for 50 mL tubes). The supernatant is discarded and the cells suspended in homogenizing buffer(10 mM Tris-HCl containing 0.25 M sucrose and 1 mM EDTA, pH 7.4) ensuring that the volume of the buffer is about ten times the volume of the cell pellet. The cells are pooled into a centrifuge tube (50 mL) and homogenized with Polytron at setting 6 for 10 sec. The homogenate is transferred into a Potter-Elvjehm homogenizer and homogenized with 3 strokes. The homogenate is centrifuged at 1500×g for 60 min at 4° C. (3100 rpm using SORVAL, model RT6000D, using the rotor for 50 mL tubes). The pellet is discarded. The supernatant is centrifuged at 100,000×g for 60 min. at 4° C. (Beckman L8-80M ultracentrifuge; spin at 37,500 rpm with rotor type 70 Ti for 50 mL tubes; 38,000 rpm with type 80Ti for 15 mL tubes; or 35,800 rpm with rotor type 45Ti). The supernantant is discarded and the pellet suspended in 3 to 4 mL of Tris buffer (50 mM TRIS-HCl, pH 7.4). The protein content is estimated by the Bradford or Lowry method. The volume of the membrane suspension is adjusted with the membrane buffer (50 mM Tris-HCl containing 0.1% BSA and 0.1 mM PMSF) to give 3.0 mg/mL (or as appropriate) of protein. The membranes are aliquoted and stored at −70° C.
In wells of a 96-well format microtiter plate, is added 90, 110 or 130 μL (to make up a final volume of 200 μL) of assay buffer containing 50 mM of Tris-HCl (pH 7.4), […], 1 mg % aprotinin, 1 mg % leupeptin, 2 mg % 1,10-phenanthroline, 10 mg % trypsin inhibitor, and 0.1 mM PMSF. The inhibitors are added on the day of the experiment. The components are mixed at room temperature, and then kept in ice bath following adjustment of the pH to 7.4. […] For vasopressin and other peptide ligands 20 μL of 50% DMSO is added and the assay buffer volume is adjusted accordingly. To each well is added 50 μL of frozen membrane suspension thawed immediately prior to use and diluted in assay buffer to the required concentration (equivalent to 25 to 50 μg of protein/well as needed). 20 μL of 8 nM [^3H]arginine vasopressin ligand in the assay buffer, prepared just before use is added and incubated at room temperature for 60 min. shaking the plate on a mechanical shaker for the first 15 min. The incubation is stopped by rapid filtration of the plate contents followed by wash with ice-cold buffer (50 mM Tris-HCl, pH 7.4) using a cell harvester (Tomtek and Printed filtermat-B filter paper). The filter paper is thoroughly dried (7–12 min. in a microwave oven) and impregnated with MeltiLex B/H melt-on scintillation wax sheets and the radioactivity counted in a betaplate scintillation counter.
Binding data is either reported as percent inhibition at a certain concentration or if an IC50 was calculated, as a nanomolar concentration.

T1 sequence (P30518 whole entry): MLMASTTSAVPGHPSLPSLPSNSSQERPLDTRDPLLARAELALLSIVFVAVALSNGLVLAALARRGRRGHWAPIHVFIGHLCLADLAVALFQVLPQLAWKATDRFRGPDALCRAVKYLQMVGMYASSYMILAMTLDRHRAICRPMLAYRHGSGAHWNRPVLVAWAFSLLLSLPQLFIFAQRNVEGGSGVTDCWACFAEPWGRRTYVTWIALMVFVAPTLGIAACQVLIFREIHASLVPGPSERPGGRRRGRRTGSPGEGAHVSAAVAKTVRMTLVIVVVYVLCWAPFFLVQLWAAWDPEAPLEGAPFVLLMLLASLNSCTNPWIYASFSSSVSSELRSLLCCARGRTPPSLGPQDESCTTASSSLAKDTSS

Row | Compound | inhibition at 0.1 µM | V2 % inhibition @ 100 nM
1 | Cc1ccccc1-c1ccc(C(=O)N2Cc3ccc(C(=O)NCc4ccccn4)n3Cc3ccccc32)cc1 [Example 27, 10-[(2′-Methyl-[1,1′-biphenyl]-4-yl)carbonyl]-N-(2-pyridinylmethyl)-10,11-dihydro-5H-pyrrolo[2,1-c][1,4]benzodiazepine-3-carboxamide] | 16% | 
2 | Cc1ccccc1-c1ccc(C(=O)N2Cc3ccc(C(=O)N(C)CCc4ccncc4)n3Cc3ccccc32)cc1C [Example 127, 10-[(2,2′-Dimethyl-[1,1′-biphenyl]-4-yl)carbonyl]-N-methyl-N-[2-(4-pyridinyl)ethyl]-10,11-dihydro-5H-pyrrolo[2,1-c][1,4]benzodiazepine-3-carboxamide] | 15% | 
3 | CN(CCc1ccncc1)C(=O)c1ccc2n1Cc1ccccc1N(C(=O)c1ccc(-c3cccc4ccccc34)cc1Cl)C2 [Example 136, 10-[2-Chloro-4-(naphthalen-1-yl)benzoyl]-N-methyl-N-[2-(4-pyridinyl)ethyl]-10,11-dihydro-5H-pyrrolo[2,1-c][1,4]benzodiazepine-3-carboxamide] | 19% | 
4 | COc1cc(C(=O)N2Cc3ccc(C(=O)NCc4ccccn4)n3Cc3ccccc32)ccc1-c1ccccc1C [Example 28, 10-[(2-Methoxy-2′-methyl-[1,1′-biphenyl]-4-yl)carbonyl]-N-(2-pyridinylmethyl)-10,11-dihydro-5H-pyrrolo[2,1-c][1,4]benzodiazepine-3-carboxamide] | 20% | 
5 | Cc1ccccc1-c1ccc(C(=O)N2Cc3ccc(C(=O)NCCc4ccccn4)n3Cc3ccccc32)cc1C [Example 50, 10-[(2,2′-Dimethyl-[1,1′-biphenyl]-4-yl)carbonyl]-N-[2-(2-pyridinyl)ethyl]-10,11-dihydro-5H-pyrrolo[2,1-c][1,4]benzodiazepine-3-carboxamide] | 17% | 
6 | O=C(NCc1cccnc1)c1ccc2n1Cc1ccccc1N(C(=O)c1ccc(-c3cccc4ccccc34)cc1Cl)C2 [Example 47, 10-[2-Chloro-4-(naphthalen-1-yl)benzoyl]-N-(3-pyridinylmethyl)-10,11-dihydro-5H-pyrrolo[2,1-c][1,4]benzodiazepine-3-carboxamide] | 6% | 
7 | COc1cc(C(=O)N2Cc3ccc(C(=O)N4CCN(c5ccncc5)CC4)n3Cc3ccccc32)ccc1-c1ccccc1C [Example 118] |  | −10%
8 | COc1cccc(-c2ccc(C(=O)N3Cc4ccc(C(=O)NCc5ccncc5)n4Cc4ccccc43)cc2OC)c1 [Example 98] |  | 10%
9 | COc1cccc(-c2ccc(C(=O)N3Cc4ccc(C(=O)NCc5ccccn5)n4Cc4ccccc43)cc2OC)c1 [Example 33, 10-[(2,3′-Dimethoxy-[1,1′-biphenyl]-4-yl)carbonyl]-N-(2-pyridinylmethyl)-10,11-dihydro-5H-pyrrolo[2,1-c][1,4]benzodiazepine-3-carboxamide] | 21% | 
10 | COc1ccccc1-c1ccc(C(=O)N2Cc3ccc(C(=O)N4CCN(c5ccncc5)CC4)n3Cc3ccccc32)cc1OC [Example 122, {10-[(2,2′-Dimethoxy-[1,1′-biphenyl]-4-yl)carbonyl]-10,11-dihydro-5H-pyrrolo[2,1-c][1,4]benzodiazepin-3-yl}[4-(4-pyridinyl)-1-piperazinyl]methanone] | -10% | 
11 | COc1cccc(-c2cc(OC)c(C(=O)N3Cc4ccc(C(=O)N5CCN(c6ccncc6)CC5)n4Cc4ccccc43)cc2Cl)c1 [Example 120, {10-[(6-Chloro-3,3′-dimethoxy-[1,1′-biphenyl]-4-yl)carbonyl]-10,11-dihydro-5H-pyrrolo[2,1-c][1,4]benzodiazepin-3-yl}[4-(4-pyridinyl)-1-piperazinyl]methanone] | 16% | 
12 | Cc1ccccc1-c1ccc(C(=O)N2Cc3ccc(C(=O)N(C)CCc4ccncc4)n3Cc3ccccc32)cc1 [Example 130, N-Methyl-10-[(2′-methyl-[1,1′-biphenyl]-4-yl)carbonyl]-N-[2-(4-pyridinyl)ethyl]-10,11-dihydro-5H-pyrrolo[2,1-c][1,4]benzodiazepine-3-carboxamide] | 12% | 
13 | COc1cc(C(=O)N2Cc3ccc(C(=O)N(C)CCc4ccncc4)n3Cc3ccccc32)ccc1-c1cccc2ccccc12 [Example 134, 10-[3-Methoxy-4-(naphthalen-1-yl)benzoyl]-N-methyl-N-[2-(4-pyridinyl)ethyl]-10,11-dihydro-5H-pyrrolo[2,1-c][1,4]benzodiazepine-3-carboxamide] | 1% | 

The next lines start with results.

Row | inhibition at 0.1 µM | Compound | V2 % inhibition @ 100 nM
14 | 21% | COc1ccccc1-c1ccc(C(=O)N2Cc3ccc(C(=O)NCc4ccccn4)n3Cc3ccccc32)cc1OC [Example 32, 10-[(2,2′-Dimethoxy-[1,1′-biphenyl]-4-yl)carbonyl]-N-(2-pyridinylmethyl)-10,11-dihydro-5H-pyrrolo[2,1-c][1,4]benzodiazepine-3-carboxamide] | 
15 | 16% | COc1cccc(-c2ccc(C(=O)N3Cc4ccc(C(=O)NCCc5ccccn5)n4Cc4ccccc43)cc2C)c1 [Example 51, 10-[(3′-Methoxy-2-methyl-[1,1′-biphenyl]-4-yl)carbonyl]-N-[2-(2-pyridinyl)ethyl]-10,11-dihydro-5H-pyrrolo[2,1-c][1,4]benzodiazepine-3-carboxamide] | 
16 | 24% | COc1cccc(-c2cc(OC)c(C(=O)N3Cc4ccc(C(=O)N(C)Cc5cccnc5)n4Cc4ccccc43)cc2Cl)c1 [Example 108, 10-[(6-Chloro-3,3′-dimethoxy-[1,1′-biphenyl]-4-yl)carbonyl]-N-methyl-N-(3-pyridinylmethyl)-10,11-dihydro-5H-pyrrolo[2,1-c][1,4]benzodiazepine-3-carboxamide] | 
17 | 7% | Cc1ccccc1-c1ccc(C(=O)N2Cc3ccc(C(=O)NCc4cccnc4)n3Cc3ccccc32)cc1C [Example 37, 10-[(2,2′-Dimethyl-[1,1′-biphenyl]-4-yl)carbonyl]-N-(3-pyridinylmethyl)-10,11-dihydro-5H-pyrrolo[2,1-c][1,4]benzodiazepine-3-carboxamide] | 
18 | 23% | CN(Cc1cccnc1)C(=O)c1ccc2n1Cc1ccccc1N(C(=O)c1ccc(-c3cccc4ccccc34)cc1Cl)C2 [Example 111, 10-[2-Chloro-4-(naphthalen-1-yl)benzoyl]-N-methyl-N-(3-pyridinylmethyl)-10,11-dihydro-5H-pyrrolo[2,1-c][1,4]benzodiazepine-3-carboxamide] | 
19 | 9% | Cc1cc(C(=O)N2Cc3ccc(C(=O)NCc4cccnc4)n3Cc3ccccc32)ccc1-c1ccccc1C(F)(F)F [Example 48, 10-{[2-Methyl-2′-trifluoromethyl-[1,1′-biphenyl]-4-yl]carbonyl}-N-(3-pyridinylmethyl)-10,11-dihydro-5H-pyrrolo[2,1-c][1,4]benzodiazepine-3-carboxamide] | 
20 | 8% | COc1ccccc1-c1ccc(C(=O)N2Cc3ccc(C(=O)NCCc4ccccn4)n3Cc3ccccc32)cc1 [Example 52, 10-[(2′-Methoxy-[1,1′-biphenyl]-4-yl)carbonyl]-N-[2-(2-pyridinyl)ethyl]-10,11-dihydro-5H-pyrrolo[2,1-c][1,4]benzodiazepine-3-carboxamide] | 
21 | 2% | COc1cc(C(=O)N2Cc3ccc(C(=O)N4CCN(c5ccccn5)CC4)n3Cc3ccccc32)ccc1-n1c(C)ccc1C [Example 145, {10-[4-(2,5-Dimethyl-1H-pyrrol-1-yl)-3-methoxybenzoyl]-10,11-dihydro-5H-pyrrolo[2,1-c][1,4]benzodiazepin-3-yl}[4-(pyridin-2-yl)-1-piperazinyl]methanone] | 

Source: patent US7064120B2, “Tricyclic pyridyl carboxamides and derivatives thereof tocolytic oxytocin receptor antagonists” (Wyeth, priority 2001, dated 2006)
